Assay results taken from the supplement of paper PMC10307832.

Legend:
Test in all cases: relative viability (nuclei count vs DMSO), 5 days (fraction); higher = more cells survive
NCI-H647 = tested on: NCI-H647
Summary of the method: (§1)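 Dosing by pin tool came one day after lung cancer cell lines were seeded in 1536-well plates, using either one drug or a fixed anchor-drug dose plus five library-drug doses (not always all listed) in √10 steps. After 5 days, nuclei were counted on 4× images. Relative viability is treated-well nuclei count divided by vehicle-well nuclei count, and values are medians of duplicate plates.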

RERF-LC-KJ = tested on: RERF-LC-KJ
Summary of the method: as §1

NCI-H596 = tested on: NCI-H596
Summary of the method: as §1

LCLC-103H = tested on: LCLC-103H
Summary of the method: as §1

COR-L23 = tested on: COR-L23
Summary of the method: as §1

HOP-62 = tested on: HOP-62
Summary of the method: as §1

A-427 = tested on: A-427
Summary of the method: as §1

NCI-H1975 = tested on: NCI-H1975
Summary of the method: as §1

NCI-H2085 = tested on: NCI-H2085
Summary of the method: as §1

NCI-H1563 = tested on: NCI-H1563
Summary of the method: as §1

LXF-289 = tested on: LXF-289
Summary of the method: as §1

NCI-H2342 = tested on: NCI-H2342
Summary of the method: as §1

COR-L 105 = tested on: COR-L 105
Summary of the method: as §1

NCI-H1395 = tested on: NCI-H1395
Summary of the method: as §1

NCI-H2087 = tested on: NCI-H2087
Summary of the method: as §1

NCI-H1651 = tested on: NCI-H1651
Summary of the method: as §1

NCI-H2023 = tested on: NCI-H2023
Summary of the method: as §1

NCI-H3122 = tested on: NCI-H3122
Summary of the method: as §1

NCI-H2170 = tested on: NCI-H2170
Summary of the method: as §1

CAL-12T = tested on: CAL-12T
Summary of the method: as §1

NCI-H650 = tested on: NCI-H650
Summary of the method: as §1

SK-MES-1 = tested on: SK-MES-1
Summary of the method: as §1

COCC1(CO)C(=O)C2CCN1CC2 (stereo unspecified) [PRIMA-1MET] + Nc1nc2[nH]cc(CCc3ccc(C(=O)N[C@@H](CCC(=O)O)C(=O)O)cc3)c2c(=O)[nH]1 [Pemetrexed] (partner 0.2 µM)
relative viability (NCI-H647; first compound 0.2 µM): 0.19
relative viability (NCI-H647; first compound 0.6325 µM): 0.152
relative viability (NCI-H647; first compound 2 µM): 0.19
relative viability (NCI-H647; first compound 6.325 µM): 0.173
relative viability (NCI-H647; first compound 20 µM): 0.124
relative viability (RERF-LC-KJ; first compound 0.2 µM): 0.49
relative viability (RERF-LC-KJ; first compound 0.6325 µM): 0.484
relative viability (RERF-LC-KJ; first compound 2 µM): 0.472
relative viability (RERF-LC-KJ; first compound 6.325 µM): 0.495
relative viability (RERF-LC-KJ; first compound 20 µM): 0.472
relative viability (NCI-H596; first compound 0.2 µM): 0.553
relative viability (NCI-H596; first compound 0.6325 µM): 0.481
relative viability (NCI-H596; first compound 2 µM): 0.531
relative viability (NCI-H596; first compound 6.325 µM): 0.495
relative viability (NCI-H596; first compound 20 µM): 0.176
relative viability (LCLC-103H; first compound 0.2 µM): 0.45
relative viability (LCLC-103H; first compound 0.6325 µM): 0.503
relative viability (LCLC-103H; first compound 2 µM): 0.459
relative viability (LCLC-103H; first compound 6.325 µM): 0.499
relative viability (LCLC-103H; first compound 20 µM): 0.451
relative viability (COR-L23; first compound 0.2 µM): 0.184
relative viability (COR-L23; first compound 0.6325 µM): 0.199
relative viability (COR-L23; first compound 2 µM): 0.191
relative viability (COR-L23; first compound 6.325 µM): 0.192
relative viability (COR-L23; first compound 20 µM): 0.0784
relative viability (HOP-62; first compound 0.2 µM): 0.407
relative viability (HOP-62; first compound 0.6325 µM): 0.377
relative viability (HOP-62; first compound 2 µM): 0.36
relative viability (HOP-62; first compound 6.325 µM): 0.377
relative viability (HOP-62; first compound 20 µM): 0.122
relative viability (A-427; first compound 0.2 µM): 1.11
relative viability (A-427; first compound 0.6325 µM): 0.92
relative viability (A-427; first compound 2 µM): 0.953
relative viability (A-427; first compound 6.325 µM): 1.06
relative viability (A-427; first compound 20 µM): 0.962
relative viability (NCI-H1975; first compound 0.2 µM): 0.31
relative viability (NCI-H1975; first compound 0.6325 µM): 0.266
relative viability (NCI-H1975; first compound 2 µM): 0.28
relative viability (NCI-H1975; first compound 6.325 µM): 0.292
relative viability (NCI-H1975; first compound 20 µM): 0.282
relative viability (NCI-H2085; first compound 0.2 µM): 0.936
relative viability (NCI-H2085; first compound 0.6325 µM): 0.925
relative viability (NCI-H2085; first compound 2 µM): 0.549
relative viability (NCI-H2085; first compound 6.325 µM): 0.862
relative viability (NCI-H2085; first compound 20 µM): 0.165
relative viability (NCI-H1563; first compound 0.2 µM): 0.882
relative viability (NCI-H1563; first compound 0.6325 µM): 0.935
relative viability (NCI-H1563; first compound 6.325 µM): 0.77
relative viability (NCI-H1563; first compound 20 µM): 0.887
relative viability (LXF-289; first compound 0.2 µM): 0.967
relative viability (LXF-289; first compound 0.6325 µM): 0.891
relative viability (LXF-289; first compound 2 µM): 1.09
relative viability (LXF-289; first compound 6.325 µM): 0.954
relative viability (LXF-289; first compound 20 µM): 0.875
relative viability (NCI-H2342; first compound 0.2 µM): 0.789
relative viability (NCI-H2342; first compound 0.6325 µM): 0.852
relative viability (NCI-H2342; first compound 6.325 µM): 0.691
relative viability (NCI-H2342; first compound 20 µM): 0.753
relative viability (COR-L 105; first compound 0.2 µM): 1.3
relative viability (COR-L 105; first compound 0.6325 µM): 1.17
relative viability (COR-L 105; first compound 2 µM): 1.22
relative viability (COR-L 105; first compound 6.325 µM): 1.1
relative viability (COR-L 105; first compound 20 µM): 0.229
relative viability (NCI-H1395; first compound 0.2 µM): 0.842
relative viability (NCI-H1395; first compound 2 µM): 0.771
relative viability (NCI-H1395; first compound 6.325 µM): 0.881
relative viability (NCI-H1395; first compound 20 µM): 0.154
relative viability (NCI-H2087; first compound 0.6325 µM): 0.639
relative viability (NCI-H2087; first compound 2 µM): 0.68
relative viability (NCI-H2087; first compound 6.325 µM): 0.61
relative viability (NCI-H2087; first compound 20 µM): 0.563
relative viability (NCI-H1651; first compound 0.2 µM): 0.641
relative viability (NCI-H1651; first compound 0.6325 µM): 0.192
relative viability (NCI-H1651; first compound 2 µM): 0.542
relative viability (NCI-H1651; first compound 6.325 µM): 0.605
relative viability (NCI-H1651; first compound 20 µM): 0.651
relative viability (NCI-H2023; first compound 0.2 µM): 0.224
relative viability (NCI-H2023; first compound 0.6325 µM): 0.23
relative viability (NCI-H2023; first compound 2 µM): 0.28
relative viability (NCI-H2023; first compound 6.325 µM): 0.237
relative viability (NCI-H2023; first compound 20 µM): 0.147
relative viability (NCI-H3122; first compound 0.2 µM): 0.18
relative viability (NCI-H3122; first compound 0.6325 µM): 0.199
relative viability (NCI-H3122; first compound 2 µM): 0.206
relative viability (NCI-H3122; first compound 6.325 µM): 0.192
relative viability (NCI-H3122; first compound 20 µM): 0.206
relative viability (NCI-H2170; first compound 0.2 µM): 0.271
relative viability (NCI-H2170; first compound 0.6325 µM): 0.25
relative viability (NCI-H2170; first compound 2 µM): 0.274
relative viability (NCI-H2170; first compound 6.325 µM): 0.258
relative viability (NCI-H2170; first compound 20 µM): 0.268
relative viability (CAL-12T; first compound 0.2 µM): 1.18
relative viability (CAL-12T; first compound 0.6325 µM): 1.19
relative viability (CAL-12T; first compound 2 µM): 1.19
relative viability (CAL-12T; first compound 6.325 µM): 1.36
relative viability (CAL-12T; first compound 20 µM): 0.13
relative viability (NCI-H650; first compound 0.2 µM): 1.26
relative viability (NCI-H650; first compound 0.6325 µM): 0.894
relative viability (NCI-H650; first compound 2 µM): 0.884
relative viability (NCI-H650; first compound 6.325 µM): 0.978
relative viability (NCI-H650; first compound 20 µM): 0.263
relative viability (SK-MES-1; first compound 0.2 µM): 1.08
relative viability (SK-MES-1; first compound 0.6325 µM): 0.896
relative viability (SK-MES-1; first compound 2 µM): 0.901
relative viability (SK-MES-1; first compound 6.325 µM): 0.92
relative viability (SK-MES-1; first compound 20 µM): 0.929
